Columns and labels:
[1] = tested on: thrombin generation in platelet rich plasma; experiment: Thrombin generation/thrombogram in platelet rich plasma, rat clopidogrel model; assay type: in vivo; conditions: clopidogrel treatment, or single agent given to clopidogrel treated rats
Description: When Haemate® P was administered to clopigogrel treated rats an earlier onset of thrombin formation was observed but no increase of peak thrombin.

[2] = tested on: clopidogrel treated rats; experiment: Tail tip bleeding (total blood loss) in the rat clopidogrel model; assay type: in vivo
Description: The study was designed as an open seven-armed trial with 115 rats (+60 platelet donors).
3.2 mL blood were mixed with 0.8 mL trisodium citrate. Blood samples were pooled and centrifuged at 900 RPM for 30 minutes. Platelet-rich-plasma was collected into a fresh tube and centrifugated at 1800-2000 RPM for 15-17 minutes. The pellet was gently resuspended in Tyrode HEPES+0.3% BSA. Depending on platelet yield animals received 1.6−3×10^9 washed platelets intravenous into the tail vein.
Tablets were dissolved in isotonic saline and administered by gavage. On day 2 freshly prepared rat platelets were transfused into the tail vein by a bolus. Haemate® P was administered directly prior to platelet transfusion. 15 minutes after administration of platelets, blood loss was determined. The volume of total blood loss was calculated by measuring the HGB present in the saline used for submersion of the tail tip. The tail tip cut was performed with a scalpel knife under deep anesthesia, removing about 3 mm of the tail tip. Immediately upon lesion, the tail tip was submerged in saline, kept at the physiological body temperature of the rats using a water bath. The observation period to monitor bleeding was 30 min.
Blood loss was determined as the total blood loss (t=0-30 min) and analyzed by two-sided exact Wilcoxon test, box plot and Kaplan-Meier plot.

[3] = Group 1: Plavix/Isotonic saline, t=0-30 min

Total blood loss, Maximum [2, 3]: 2345 µL
Total blood loss, Mean [2, 3]: 1404.2 µL
Total blood loss, Median [2, 3]: 1466 µL
Total blood loss, Minimum [2, 3]: 265 µL
total blood loss (result in words) ([2]; oral treatment with clopidogrel 2.5 mg/kg day 0 and day 1): increased total blood loss
Structure (SMILES): COC(=O)[C@H](c1ccccc1Cl)N1CCc2sccc2C1 [Plavix, clopidogrel]
onset of thrombin formation [1]: later onset
peak thrombin [1]: decrease in peak thrombin

Reference: US9095564B2, “von Willebrand factor or factor VIII and von Willebrand factor for the treatment of coagulopathy induced by inhibitors of thrombocytes” (CSL Behring GmbH, priority 2008, dated 2015)
